Source: patent US4469680A, “Iodinated vasopressin antagonists” (SmithKline Beckman Corporation, priority 1983, dated 1984)
Starred links: 1 amine or outer side, 2 acyl side, 3 side chain; linkers in the order of their positions; H or OH if unused. Positions of bridges follow the written chain, without caps; N, C: chain ends. Non-standard residues stand in square brackets, D forms with d. Residues, ends and D or L forms follow the SMILES beside them. dTyr(3,5-I2) = N[C@H](Cc1cc(I)c(O)c(I)c1)C(=O)O; dTyr(3-I) = N[C@H](Cc1ccc(O)c(I)c1)C(=O)O; X1 = O=C(CC1(S[*:2])CCCCC1)[*:1]

Molecular target: vasopressin receptors (V2 -receptors) (Sus scrofa, UniProt P32307)
Assay: biochemical
Text: These values represent total and non-specific binding, respectively.

Sequence of vasopressin receptors (V2 -receptors) (P32307 whole entry): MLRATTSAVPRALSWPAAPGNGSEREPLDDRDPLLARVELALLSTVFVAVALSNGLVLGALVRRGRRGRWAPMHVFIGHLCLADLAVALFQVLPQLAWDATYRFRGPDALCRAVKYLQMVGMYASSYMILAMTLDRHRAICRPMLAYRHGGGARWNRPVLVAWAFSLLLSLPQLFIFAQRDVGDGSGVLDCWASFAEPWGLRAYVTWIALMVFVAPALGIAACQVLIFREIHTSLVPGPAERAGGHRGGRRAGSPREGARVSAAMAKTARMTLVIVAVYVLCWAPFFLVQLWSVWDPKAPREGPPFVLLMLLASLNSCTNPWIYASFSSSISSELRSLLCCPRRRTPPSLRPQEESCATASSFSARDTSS

CC(C)[C@@H]1NC(=O)[C@H](Cc2ccccc2)NC(=O)[C@@H](Cc2ccc(O)cc2)NC(=O)CC2(CCCCC2)SSC[C@@H](C(=O)N2CCC[C@H]2C(=O)N[C@@H](CCCN=C(N)N)C(=O)NCC(N)=O)NC(=O)[C@H](CC(N)=O)NC1=O [A, [Pmp^1, D-Tyr^2, Val^4]AVP, reference compound] ([dY]FVNCPRG-NH2; linker N-5 via X1) and CC(C)[C@@H]1NC(=O)[C@H](Cc2ccccc2)NC(=O)[C@@H](Cc2ccc(O)c(I)c2)NC(=O)CC2(CCCCC2)SSC[C@@H](C(=O)N2CCC[C@H]2C(=O)N[C@@H](CCCNC(=N)N)C(=O)NCC(N)=O)NC(=O)[C@H](CC(N)=O)NC1=O [B, [Pmp^1, D-Tyr(I)^2, Val^4]AVP] ([dTyr(3-I)]FVNCPRG-NH2; linker N-5 via X1) are within 1.5-fold of each other in Kb: 100 nM for the first, 120 nM for the second.

In the case of CC(C)[C@@H]1NC(=O)[C@H](Cc2ccccc2)NC(=O)[C@@H](Cc2cc(I)c(O)c(I)c2)NC(=O)CC2(CCCCC2)SSC[C@@H](C(=O)N2CCC[C@H]2C(=O)N[C@@H](CCCNC(=N)N)C(=O)NCC(N)=O)NC(=O)[C@H](CC(N)=O)NC1=O [C, [Pmp^1, D-Tyr(I2)^2, Val^4]AVP] ([dTyr(3,5-I2)]FVNCPRG-NH2; linker N-5 via X1), the Kb is reported as 2400 nM.
